Where “and” joins values, the source holds several entries; their conditions need not be identical. Equal values may be shown once.
Columns and labels:
[1] = biological target: T1, SIRT1 (Homo sapiens, UniProt Q96EB6); experiment: SIRT-Glo enzyme inhibition assay, SIRT1; settings: for inhibition at 50 µM: read-out: SIRT1 percentage inhibition at 50 µM compound, 50 µM compound
T1 sequence (Q96EB6 1-747): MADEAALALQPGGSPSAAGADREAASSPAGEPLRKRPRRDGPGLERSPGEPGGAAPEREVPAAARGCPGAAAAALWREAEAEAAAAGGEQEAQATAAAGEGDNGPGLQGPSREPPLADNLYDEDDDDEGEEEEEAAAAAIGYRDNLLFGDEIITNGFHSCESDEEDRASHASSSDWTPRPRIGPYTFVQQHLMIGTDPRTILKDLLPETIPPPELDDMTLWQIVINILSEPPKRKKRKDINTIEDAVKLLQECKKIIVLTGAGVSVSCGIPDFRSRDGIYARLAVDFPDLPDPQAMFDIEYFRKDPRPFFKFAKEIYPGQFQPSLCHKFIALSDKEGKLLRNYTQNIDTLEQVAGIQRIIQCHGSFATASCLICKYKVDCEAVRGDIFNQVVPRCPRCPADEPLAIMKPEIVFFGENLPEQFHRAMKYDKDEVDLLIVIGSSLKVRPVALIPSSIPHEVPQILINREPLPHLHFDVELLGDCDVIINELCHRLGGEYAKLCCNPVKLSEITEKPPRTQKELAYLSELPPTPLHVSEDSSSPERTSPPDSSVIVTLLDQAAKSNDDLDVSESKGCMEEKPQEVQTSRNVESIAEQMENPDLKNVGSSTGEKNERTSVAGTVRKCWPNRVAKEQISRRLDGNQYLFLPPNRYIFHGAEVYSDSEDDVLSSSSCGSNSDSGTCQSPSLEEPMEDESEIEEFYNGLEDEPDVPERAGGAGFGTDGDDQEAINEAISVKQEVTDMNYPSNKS
Procedure: (§2) SIRT1, SIRT2, and SIRT3 were purchased from Cayman Chemical. Enzyme inhibition assays were performed in 96-well black plates using the SIRT-Glo Assay (Promega Corp.) according to the manufacturer’s instructions. Compounds were dissolved in 100% DMSO and to make 5- or 10-mM stock solutions. For initial enzyme inhibition tests, 50 µM of inhibitory concentration was used. […] IC50 values were determined in triplicate and reported values are averages of two independent experiments.

[2] = biological target: T2, SIRT3 (Homo sapiens, UniProt Q9NTG7); experiment: SIRT-Glo enzyme inhibition assay, SIRT3; settings: for inhibition at 50 µM: read-out: SIRT3 percentage inhibition at 50 µM compound, 50 µM compound
T2 sequence (Q9NTG7 1-399): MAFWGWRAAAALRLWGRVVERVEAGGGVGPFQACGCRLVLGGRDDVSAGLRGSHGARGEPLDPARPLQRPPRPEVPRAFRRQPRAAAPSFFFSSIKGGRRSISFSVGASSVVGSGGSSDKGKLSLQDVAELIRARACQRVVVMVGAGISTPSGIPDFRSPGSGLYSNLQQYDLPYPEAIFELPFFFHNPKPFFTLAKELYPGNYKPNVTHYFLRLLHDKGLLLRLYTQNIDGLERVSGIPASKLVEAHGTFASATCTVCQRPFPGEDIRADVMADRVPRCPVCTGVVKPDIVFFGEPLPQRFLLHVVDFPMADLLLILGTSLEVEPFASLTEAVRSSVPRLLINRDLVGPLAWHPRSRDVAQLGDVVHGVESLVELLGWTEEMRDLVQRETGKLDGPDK
Procedure: as §2

[3] = test system: Daudi (Burkitt lymphoma) cells; experiment: Cell viability (CellTiter-Glo), Daudi; assay type: cell-based; settings: Homo sapiens, 72 h, cellular ATP, read-out: Daudi LC50
Procedure: (§1) With selective SIRT2 inhibitors in hand, we proceeded to evaluate cytotoxicity of our compounds in Daudi, Raji (Burkitt lymphoma) and OCI-Ly8-LAM-53 (OCI, a representative of several Diffuse Large B-Cell Lymphoma lines; DLBCL) cell lines. Briefly, cells were plated in 96-well plates and treated with inhibitors at desired concentrations for 72 h. Cellular viability was determined by measuring the amount of cellular ATP using CellTiter-Glo assay kit (Promega) and normalized against DMSO-treated controls. […] Selected inhibitors were further evaluated in an expanded panel of cancer cell lines including breast cancer (MCF-7 and MDA-MB231), prostate cancer (PC-3) and glioblastoma multiforme (U-251). […] However, the trend in potency as a function of the structure is consistent with the results obtained against lymphoma cell lines. […] . Cell lines were obtained from ATCC (Manassas, VA, USA) and were grown under standard conditions as recommended. For viability assays, 3000 cells per well were dispensed into 96-well plates and treated with test compounds (final DMSO concentration 0.25%). Cells were incubated with test compounds (or DMSO controls) for 72 h or 5 days as noted at 37 °C in 5% CO2 and viability was determined using the CellTiter-Glo Assay (Promega Corp.) according to manufacturer’s instructions.

[4] = test system: Raji (Burkitt lymphoma) cells; experiment: Cell viability (CellTiter-Glo), Raji; assay type: cell-based; settings: Homo sapiens, 72 h, cellular ATP, read-out: Raji LC50
Procedure: as §1

[5] = test system: OCI-Ly8-LAM-53 (OCI, DLBCL) cells; experiment: Cell viability (CellTiter-Glo), OCI; assay type: cell-based; settings: 72 h, cellular ATP; read-out: OCI LC50
Procedure: as §1

[6] = biological target: T3, SIRT2 (Homo sapiens, UniProt Q8IXJ6); experiment: SIRT-Glo enzyme inhibition assay, SIRT2; settings: for IC50: SIRT2 IC50; for inhibition at 50 µM: read-out: SIRT2 percentage inhibition at 50 µM compound, 50 µM compound
T3 sequence (Q8IXJ6 1-389): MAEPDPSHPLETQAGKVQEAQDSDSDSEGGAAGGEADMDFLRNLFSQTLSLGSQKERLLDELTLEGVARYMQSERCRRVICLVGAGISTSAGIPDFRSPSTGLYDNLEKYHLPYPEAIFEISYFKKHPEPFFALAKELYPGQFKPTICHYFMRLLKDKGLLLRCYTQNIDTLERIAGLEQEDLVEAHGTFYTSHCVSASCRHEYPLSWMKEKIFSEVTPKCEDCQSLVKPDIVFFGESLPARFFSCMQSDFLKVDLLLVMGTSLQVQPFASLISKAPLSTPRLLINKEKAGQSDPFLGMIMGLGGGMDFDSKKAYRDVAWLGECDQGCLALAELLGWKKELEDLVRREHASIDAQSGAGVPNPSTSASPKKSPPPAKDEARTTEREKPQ
Procedure: as §2

[7] = test system: OCI DLBCL cells; experiment: Annexin V staining assay; settings: 5 µM
Procedure: OCI DLBCL cells were treated with 56 for 24 h. Cells were lysed and analyzed by western blot assay for cleaved poly-ADP-ribose polymerase (PARP), a well-accepted apoptosis marker [42] (Abcam, Cambridge, UK).

SMILES	inhibition at 50 µM [1] [%]	inhibition at 50 µM [2] [%]	CC50 [3] [µM]	CC50 [4] [µM]	CC50 [5] [µM]	IC50 [6]	inhibition at 50 µM [6] [%]	selectivity for SIRT2 over SIRT1 ([1]; SIRT2 versus SIRT1) [fold]	selectivity for SIRT2 over SIRT3 ([2]; SIRT2 versus SIRT3) [fold]	Q1 (necrotic cell death) cell population [7] [%]	Q2 (apoptotic cells) cell population [7] [%]	Q3 cell population [7] [%]	Q4 cell population [7] [%]
NC(=O)C(Cc1c(O)ccc2cc(Br)ccc12)C(=O)c1ccc(Cl)cc1 (centres unmarked) [Compound 19, 2-[(6-Bromo-2-hydroxynaphthalen-1-yl)methyl]-3-(4-chlorophenyl)-3-oxopropanamide]	0	30	5	7.3	8.2	2.79 µM and 2.8 µM	95						
NC(=O)C(Cc1c(O)ccc2cc(Br)ccc12)C(=O)c1ccc(C(F)(F)F)cc1 (centres unmarked) [Compound 20, 2-[(6-Bromo-2-hydroxynaphthalen-1-yl)methyl]-3-(4-trifluoromethylphenyl)-3-oxopropanamide]	0	5				1.9 µM	100						
NC(=O)C(Cc1c(O)ccc2cc(Br)ccc12)C(=O)c1cccc(C(F)(F)F)c1 (centres unmarked) [Compound 21, 2-[(6-Bromo-2-hydroxynaphthalen-1-yl)methyl]-3-(3-trifluoromethylphenyl)-3-oxopropanamide]	0	15				12.6 µM	89						
NC(=O)C(Cc1c(O)ccc2cc(Br)ccc12)C(=O)c1ccc(Br)cc1 (centres unmarked) [Compound 22, 2-[(6-Bromo-2-hydroxynaphthalen-1-yl)methyl]-3-(4-bromo)-3-oxopropanamide]	7	42	7	7.8	1.6	2.5 µM	93						
NC(=O)C(Cc1c(O)ccc2cc(Br)ccc12)C(=O)c1cccc(Br)c1 (centres unmarked) [Compound 23, 2-[(6-Bromo-2-hydroxynaphthalen-1-yl)methyl]-3-(3-bromo)-3-oxopropanamide]	53	41				8.95 µM	91						
NC(=O)C(Cc1c(O)ccc2cc(Br)ccc12)C(=O)c1ccc(F)cc1 (centres unmarked) [Compound 25, 2-[(6-Bromo-2-hydroxynaphthalen-1-yl)methyl]-3-(4-fluoro)-3-oxopropanamide]	35	39				12.4 µM	96						
CNC(=O)C(Cc1c(O)ccc2cc(Br)ccc12)C(=O)c1ccc(C(F)(F)F)cc1 (centres unmarked) [Compound 33, 2-[(6-Bromo-2-hydroxynaphthalen-1-yl)methyl]-N-methyl-3-oxo-3-[4-(trifluoromethyl)phenyl]propenamide]		6	14.5	18.5	16.4	0.59 µM	97						
O=C(NCCO)C(Cc1c(O)ccc2cc(Br)ccc12)C(=O)c1cccc(Br)c1 (centres unmarked) [Compound 36, 2-[(6-Bromo-2-hydroxynaphthalen-1-yl)methyl]-3-(3-bromophenyl)-N-(2-hydroxyethyl)-3-oxopropanamide]	0	43				4.75 µM	94						
O=C(NCCCO)C(Cc1c(O)ccc2cc(Br)ccc12)C(=O)c1cccc(Br)c1 (centres unmarked) [Compound 37, 2-[(6-Bromo-2-hydroxynaphthalen-1-yl)methyl]-3-(3-bromophenyl)-N-(3-hydroxypropyl)-3-oxopropanamide]	28	46				7.62 µM	86						
NC(=O)CCNC(=O)C(Cc1c(O)ccc2cc(Br)ccc12)C(=O)c1cccc(Br)c1 (centres unmarked) [Compound 43, 2-[(6-Bromo-2-hydroxynaphthalen-1-yl)methyl]-3-(3-bromophenyl)-N-(2-carbamoylethyl)-3-oxopropanamide]	0	20	15.8	19.4		0.96 µM	89						
CNC(=O)CCNC(=O)C(Cc1c(O)ccc2cc(Br)ccc12)C(=O)c1cccc(Br)c1 (centres unmarked) [Compound 44, 2-[(6-Bromo-2-hydroxynaphthalen-1-yl)methyl]-3-(3-bromophenyl)-N-[2-(methylcarbamoyl)ethyl]-3-oxo-propanamide]	0					6.5 µM	98						
CN1CCN(C(=O)C(Cc2c(O)ccc3cc(Br)ccc23)C(=O)c2ccc(C(F)(F)F)cc2)CC1 (centres unmarked) [Compound 45, 2-[(6-Bromo-2-hydroxynaphthalen-1-yl)methyl]-1-(4-methylpiperazin-1-yl)-3-[4-(trifluoromethyl)phenyl]-propane-1,3-dione]	10						88						
O=C(NCCO)C(Cc1c(O)ccc2cc(Br)ccc12)C(=O)c1ccc(Cl)cc1 (centres unmarked) [Compound 47, 2-[(6-Bromo-2-hydroxynaphthalen-1-yl)methyl]-3-(4-chlorophenyl)-N-(2-hydroxyethyl)-3-oxopropanamide]	0	5		20.2	9.7	0.96 µM	98						
NC(=O)CCNC(=O)C(Cc1c(O)ccc2cc(Br)ccc12)C(=O)c1ccc(Cl)cc1 (centres unmarked) [Compound 50, 2-[(6-Bromo-2-hydroxynaphthalen-1-yl)methyl]-N-(2-carbamoylethyl)-3-(4-chlorophenyl)-3-oxopropanamide]	4	17		19.9	11.7	0.65 µM	99						
NC(=O)CCNC(=O)C(Cc1c(O)ccc2cc(Br)ccc12)C(=O)c1cccc(C(F)(F)F)c1 (centres unmarked) [Compound 53]	8	16				1.57 µM	91	> 400	> 800				
COc1cc([C@@H]2c3cc4c(cc3[C@@H](O[C@@H]3O[C@@H]5CO[C@@H](C)O[C@H]5[C@H](O)[C@H]3O)[C@H]3COC(=O)[C@H]23)OCO4)cc(OC)c1O [Etoposide, etoposide, reference compound]										5.1	59.8	26.8	8.3

Reference: PMC7036909, “Discovery of Selective SIRT2 Inhibitors as Therapeutic Agents in B-Cell Lymphoma and Other Malignancies” (Molecules, 2020)
